# Counter-ions that a name gives are not always drawn.
# System: MTT (mouse pheochromocytoma)
# Assay: IC50 of cell viability (ATP content)
# Conditions: (24 or 48 h)
# How it was run: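 MTT mouse pheochromocytoma cells, cultured overnight at 37°C, 5% CO2 in DMEM with 5% FBS and 1% horse serum, were exposed in white 1536-well plates to library compounds in DMSO at final 0.5 nM to 46 µM (8 concentrations) for 24 or 48 hrs. CellTiter-Glo luminescence was normalised to positive-control (100%) and DMSO (0%) wells. A four-parameter logistic fit gave the IC50.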
row,Structure (SMILES),IC50 of cell viability [µM]
1,CN1C=C(C2=CC=CC=C12)C3=C(/C(=O)NC\3=O)C4=CN(C5CCN(CC6=NC=CC=C6)CC5)C7=C4C=CC=C7 [Enzastaurin],> 46
2,Nc1ncnc2c1ncn2[C@@H]1O[C@H](CO)[C@@H](O)[C@H]1O [ADENOSINE],> 46
3,CCOC(=O)c1ccc(OC(=O)CCCCCNC(=N)N)cc1.C[S+](=O)([O-])O [Gabexate mesilate],> 46
4,Clc1ccc([C@H]2CC3CCC2N3)cn1 (stereo partly drawn) [(?)-Epibatidine],> 46
5,"CNC(C)[C@@H](O)c1ccccc1.Cl (stereo partly drawn) [EPHEDRINE (1R,2S) HYDROCHLORIDE]",> 46
6,CO[C@@]1(NC(=O)CSC(F)F)C(=O)N2C(C(=O)O)=C(CSc3nnnn3CCO)CO[C@@H]21 [Flomoxef],> 46
7,CN(C)C(=O)Oc1cccc([N+](C)(C)C)c1 [NEOSTIGMINE],> 46
8,CCOC1=C2O[C@H]3[C@@H](O)\C=C/[C@H]4[C@H]5CC(=C2[C@@]34CCN5C)C=C1 [ETHYLMORPHINE HYDROCHLORIDE],> 46
9,CCN(CC)C(C)C(=O)c1ccccc1 (stereo not drawn) [DIETHYLPROPION HYDROCHLORIDE],> 46
10,CC1(C)S[C@H]2[C@H](NC(=O)C3(N)CCCCC3)C(=O)[N@]2[C@H]1C(O)=O [Cyclacillin],> 46
11,C1C\N=C(\COC2=C(C=CC=C2)C3CC3)N1 [CIRAZOLINE],> 46
12,C[C@]12CCC(=O)C(=O)C1CC[C@@H]1[C@@H]2CC[C@]2(C)C(=O)CC[C@@H]12 (stereo partly drawn) [FORMESTANUM],> 46
13,CCCCCl [n-Butyl chloride],> 46
14,O=C(O)/C=C\C(=O)O.O=C(O)/C=C\C(=O)O.c1cc(CN2CCCCC2)cc(OCCCNc2nc3ccccc3s2)c1,> 46
15,CC12CCC3C4CCC(=O)C(O)=C4CCC3C1CCC2OC(=O)CCC1CCCC1 (stereo not drawn) [OXABOLONE CIPIONATE],> 46
16,CCCCCCCCCCCCCCCCOP(=O)([O-])OCC[N+](C)(C)C [MILTEFOSINE],> 46
17,O=C(O)/C=C/C(=O)O [MALEIC ACID],> 46
18,CCCCCCCCCCCCCCCCCCOC[C@H](COP(=O)([O-])OCC[N+](C)(C)C)OC [ET-18-OCH3],> 46
19,Clc1ccc(CO/N=C(\Cn2ccnc2)c2ccc(Cl)cc2Cl)c(Cl)c1.O=[N+]([O-])O [OXICONAZOLE NITRATE],> 46
20,COC1=C(OC)C(=O)C(CCCCCCCCCCO)=C(C)C1=O [Idebenone],> 46
21,CCC1(c2ccccc2)C(=O)N(COC)C(=O)N(COC)C1=O [ETEROBARBUM],> 46
22,"C[Se]CC[C@H](N)C(=O)O [SELENOMETHIONINE, L-]",> 46

# More lines, now with the values ahead:
row,IC50 of cell viability [µM],Structure (SMILES)
1,> 46,O=C(O)C(Cc1cc(I)c(O)c(I)c1)c1ccccc1 (stereo not drawn) [PHENIODOLUM NATRICUM]
2,> 46,O=C(O)COC(=O)Cc1ccccc1Nc1c(Cl)cccc1Cl [Aceclofenac]
3,> 46,COc1cc(C=O)ccc1O [Vanillin]
4,> 46,CCOC(=O)c1cnc2cc(OCC(C)C)c(OCC(C)C)cc2c1O [BUQUINOLATE]
5,> 46,CC(C)(C)NC[C@H](O)c1cc(O)cc(O)c1 [Terbutaline hemisulfate]
6,> 46,Cc1c(C)c2c(c(C)c1OC(=O)c1cccnc1)CC[C@@](C)(CCC[C@H](C)CCC[C@H](C)CCCC(C)C)O2 [TOCOPHEROL NICOTINATE]
7,> 46,Cc1ccnc(N[S+](=O)([O-])c2ccc(N)cc2)n1 [Sulfamerazine]
8,> 46,Cc1nc2c([nH]1)c(=O)n(C)c(=O)n2Cc1ccco1 [FURAFYLLINE]
9,> 46,O=C(O)CCC(=O)OC[C@@H](NC(=O)C(Cl)Cl)[C@H](O)c1ccc([N+](=O)[O-])cc1 [Chloramphenicol succinate sodium salt]
10,> 46,O=C(Nc1ccccc1)OC[C@H](CN1CCCCC1)OC(=O)Nc1ccccc1 [Diperodon hydrochloride]
11,> 46,C=CCc1ccccc1OCC(O)CNC(C)C (stereo not drawn) [ALPRENOLOL]
12,> 46,O=C([O-])c1ccc(NC(=O)[C@H](Cc2ccc(O)cc2)NC(=O)c2ccccc2)cc1 [Bentiromide]
13,> 46,C[C@H](C(=O)O)c1ccc2c(c1)CC(=O)c1ccccc1S2 [Zaltoprofen]
14,> 46,N[C@@H]1CN(CC12CC2)C3=C(F)C=C4C(=O)\C(=C/N([C@@H]5C[C@@H]5F)C4=C3Cl)C(O)=O [Sitafloxacin]
15,> 46,CC(=O)O.N=C(N)NCCCC(NC(=O)C1CCCN1C(=O)C1CSSCCC(=O)NC(Cc2ccc(O)cc2)C(=O)NC(Cc2ccccc2)C(=O)NC(CCC(N)=O)C(=O)NC(CC(N)=O)C(=O)N1)C(=O)NCC(N)=O.O.O.O (stereo not drawn) [DESMOPRESSIN ACETATE]
16,> 46,"Cc1ccccn1 [PICOLINE, ALPHA]"

row,IC50 of cell viability [µM],Structure (SMILES)
1,> 46,CN1\C(=C(\O)C2=C(C=CC=C2)[S+]1([O-])=O)C(=O)NC3=NOC(=C3)C [ISOXICAM]
2,> 46,CC(C)NC[C@@H](O)COc1ccc(CC(N)=O)cc1 [R-(+)-ATENOLOL]
3,> 46,Oc1ccc(Cl)cc1Sc1cc(Cl)ccc1O [Fenticlor]
4,> 46,CC1CCc2c(N3CCC(O)CC3)c(F)cc3c(=O)c(C(=O)O)cn1c23 (stereo not drawn) [Nadifloxacin]
5,> 46,Cc1ccc(O)c(-n2nc3ccccc3n2)c1 [Drometrizole]
6,> 46,C[C@H]1C[C@H]2[C@H]3CC\C4=C\C(=O)\C=C/[C@@]4(C)[C@@]3(Cl)[C@@H](O)C[C@]2(C)[C@]1(OC(=O)C5=CC=CO5)C(=O)CCl [Mometasone furoate]
7,> 46,CCOC(=O)COC1=C(Cl)C2=C(C=C1)\C(=C(CCN(CC)CC)/C(=O)O2)C [CLORICROMENUM]
8,> 46,CC(C)(C)NC[C@H](O)COc1cccc2c1CCCC2=O [(-) -Levobunolol hydrochloride]
9,> 46,O=C([O-])c1cccc(/C=C2/C[C@@H]3[C@@H](/C=C/[C@@H](O)C4CCCCC4)[C@H](O)C[C@@H]3O2)c1 [Taprostene sodium salt]
10,> 46,O=c1[nH]c(=O)c2ccccc2o1 [Carsalam]
11,> 46,S=C1SCN(Cc2ccccc2)CN1Cc1ccccc1 [Sulbentina]
12,> 46,CC[N+](CC)(CCNC(=O)C(=O)NCC[N+](CC)(CC)Cc1ccccc1Cl)Cc1ccccc1Cl [AMBENONIUM]
13,> 46,CNC(=O)C[C@@H](N)C(=O)N[C@@H](C(=O)N[C@@H]1C(=O)N2[C@@H]1SC(C)(C)[C@@H]2C(=O)O)c1ccc(O)cc1 [ASPOXICILLIN]
14,> 46,"O=C(O)CNC(=O)c1ccccc1I [IODOHIPPURATE SODIUM, I-123]"
15,> 46,CCC(=O)c1ccc(O)cc1 [P-HYDROXYPROPIOPHENONE]

# From the supplement of paper PMC3974653
